Assay results: ChEMBL document CHEMBL4251595, “Green approach for the synthesis of thiophenyl pyrazoles and isoxazoles by adopting 1,3-dipolar cycloaddition methodology and their antimicrobial activity” (2018)
Activity calls are given as the source filed them. The calls are words filed in the database; no cut-off is given here.

Assays:
Format in all cases: functional
Bacillus subtilis [1] = assay: Antimicrobial activity against Bacillus subtilis assessed as zone of inhibition at 100 ug/well after 24 hrs by agar well diffusion method; conditions: for zone of inhibition at 100 µg/disc: read-out: DIZ
Aspergillus niger [2] = assay: Antifungal activity against Aspergillus niger assessed as zone of inhibition at 100 ug/well after 48 hrs by agar well diffusion method; conditions: for zone of inhibition at 100 µg/disc: read-out: DIZ
Aspergillus niger [3] = assay: Antifungal activity against Aspergillus niger assessed as zone of inhibition at 50 ug/well after 48 hrs by agar well diffusion method; conditions: for zone of inhibition at 50 µg/disc: read-out: DIZ
Pseudomonas aeruginosa [4] = assay: Antimicrobial activity against Pseudomonas aeruginosa assessed as zone of inhibition at 100 ug/well after 24 hrs by agar well diffusion method; conditions: for zone of inhibition at 100 µg/disc: read-out: DIZ
Klebsiella pneumoniae [5] = assay: Antimicrobial activity against Klebsiella pneumoniae assessed as zone of inhibition at 50 ug/well after 24 hrs by agar well diffusion method; conditions: for zone of inhibition at 50 µg/disc: read-out: DIZ
Bacillus subtilis [6] = assay: Antimicrobial activity against Bacillus subtilis assessed as zone of inhibition at 50 ug/well after 24 hrs by agar well diffusion method; conditions: for zone of inhibition at 50 µg/disc: read-out: DIZ
Penicillium chrysogenum [7] = assay: Antifungal activity against Penicillium chrysogenum assessed as zone of inhibition at 50 ug/well after 48 hrs by agar well diffusion method; conditions: for zone of inhibition at 50 µg/disc: read-out: DIZ
Staphylococcus aureus [8] = assay: Antimicrobial activity against Staphylococcus aureus assessed as zone of inhibition at 50 ug/well after 24 hrs by agar well diffusion method; conditions: for zone of inhibition at 50 µg/disc: read-out: DIZ
Staphylococcus aureus [9] = assay: Antimicrobial activity against Staphylococcus aureus assessed as zone of inhibition at 100 ug/well after 24 hrs by agar well diffusion method; conditions: for zone of inhibition at 100 µg/disc: read-out: DIZ
Pseudomonas aeruginosa [10] = assay: Antimicrobial activity against Pseudomonas aeruginosa assessed as zone of inhibition at 50 ug/well after 24 hrs by agar well diffusion method; conditions: for zone of inhibition at 50 µg/disc: read-out: DIZ
Aspergillus niger [11] = assay: Antifungal activity against Aspergillus niger assessed as zone of inhibition at 75 ug/well after 48 hrs by agar well diffusion method; conditions: for zone of inhibition at 75 µg/disc: read-out: DIZ
Penicillium chrysogenum [12] = assay: Antifungal activity against Penicillium chrysogenum assessed as zone of inhibition at 100 ug/well after 48 hrs by agar well diffusion method; conditions: for zone of inhibition at 100 µg/disc: read-out: DIZ
Bacillus subtilis [13] = assay: Antimicrobial activity against Bacillus subtilis assessed as zone of inhibition at 75 ug/well after 24 hrs by agar well diffusion method; conditions: for zone of inhibition at 75 µg/disc: read-out: DIZ
Klebsiella pneumoniae [14] = assay: Antimicrobial activity against Klebsiella pneumoniae assessed as zone of inhibition at 100 ug/well after 24 hrs by agar well diffusion method; conditions: for zone of inhibition at 100 µg/disc: read-out: DIZ
Klebsiella pneumoniae [15] = assay: Antimicrobial activity against Klebsiella pneumoniae assessed as zone of inhibition at 75 ug/well after 24 hrs by agar well diffusion method; conditions: for zone of inhibition at 75 µg/disc: read-out: DIZ
Penicillium chrysogenum [16] = assay: Antifungal activity against Penicillium chrysogenum assessed as zone of inhibition at 75 ug/well after 48 hrs by agar well diffusion method; conditions: for zone of inhibition at 75 µg/disc: read-out: DIZ
Pseudomonas aeruginosa [17] = assay: Antimicrobial activity against Pseudomonas aeruginosa assessed as zone of inhibition at 75 ug/well after 24 hrs by agar well diffusion method; conditions: for zone of inhibition at 75 µg/disc: read-out: DIZ
Staphylococcus aureus [18] = assay: Antimicrobial activity against Staphylococcus aureus assessed as zone of inhibition at 75 ug/well after 24 hrs by agar well diffusion method; conditions: for zone of inhibition at 75 µg/disc: read-out: DIZ

Row | SMILES | zone of inhibition at 100 µg/disc (Bacillus subtilis [1]) [mm] | zone of inhibition at 100 µg/disc (Aspergillus niger [2]) [mm] | zone of inhibition at 50 µg/disc (Aspergillus niger [3]) [mm] | zone of inhibition at 100 µg/disc (Pseudomonas aeruginosa [4]) [mm] | zone of inhibition at 50 µg/disc (Klebsiella pneumoniae [5]) [mm] | zone of inhibition at 50 µg/disc (Bacillus subtilis [6]) [mm] | diameter of the inhibition zone (DIZ) (Penicillium chrysogenum [7]) | zone of inhibition at 50 µg/disc (Staphylococcus aureus [8]) [mm] | zone of inhibition at 100 µg/disc (Staphylococcus aureus [9]) [mm] | zone of inhibition at 50 µg/disc (Pseudomonas aeruginosa [10]) [mm] | zone of inhibition at 75 µg/disc (Aspergillus niger [11]) [mm] | zone of inhibition at 100 µg/disc (Penicillium chrysogenum [12]) [mm] | zone of inhibition at 75 µg/disc (Bacillus subtilis [13]) [mm] | zone of inhibition at 100 µg/disc (Klebsiella pneumoniae [14]) [mm] | zone of inhibition at 75 µg/disc (Klebsiella pneumoniae [15]) [mm] | zone of inhibition at 75 µg/disc (Penicillium chrysogenum [16]) [mm] | zone of inhibition at 75 µg/disc (Pseudomonas aeruginosa [17]) [mm] | zone of inhibition at 75 µg/disc (Staphylococcus aureus [18]) [mm] | diameter of the inhibition zone (DIZ) (Pseudomonas aeruginosa [10]) | diameter of the inhibition zone (DIZ) (Pseudomonas aeruginosa [17]) | further results
1 | O=C(NS(=O)(=O)/C=C/c1ccccc1)c1cccs1 | 23 | 15 | 10 | 10 | 15 | 18 | inactive | 12 | 17 | 7 | 13 | 11 | 21 | 19 | 18 | 8 | 9 | 16 |  |  | 
2 | Cc1ccc(-c2c(S(=O)(=O)NC(=O)c3ccc(Cl)s3)c(-c3ccccc3)nn2-c2ccccc2)cc1 | 24 | 23 | 16 | 13 | 15 | 18 | inactive | 12 | 16 |  | 19 | 13 | 20 | 20 | 17 | 10 |  | 15 | inactive | inactive | 
3 | Cc1ccc(C2ON=C(c3ccccc3)C2S(=O)(=O)NC(=O)c2cccs2)cc1 (configuration not stated) |  |  |  |  |  |  | inactive |  |  |  |  |  |  |  |  |  |  |  | inactive | inactive | diameter of the inhibition zone (DIZ) (Bacillus subtilis [1]): inactive; diameter of the inhibition zone (DIZ) (Aspergillus niger [2]): inactive; diameter of the inhibition zone (DIZ) (Aspergillus niger [3]): inactive; diameter of the inhibition zone (DIZ) (Pseudomonas aeruginosa [4]): inactive; diameter of the inhibition zone (DIZ) (Klebsiella pneumoniae [5]): inactive; diameter of the inhibition zone (DIZ) (Bacillus subtilis [6]): inactive; diameter of the inhibition zone (DIZ) (Staphylococcus aureus [8]): inactive; diameter of the inhibition zone (DIZ) (Staphylococcus aureus [9]): inactive; diameter of the inhibition zone (DIZ) (Aspergillus niger [11]): inactive; diameter of the inhibition zone (DIZ) (Penicillium chrysogenum [12]): inactive; diameter of the inhibition zone (DIZ) (Bacillus subtilis [13]): inactive; diameter of the inhibition zone (DIZ) (Klebsiella pneumoniae [14]): inactive; diameter of the inhibition zone (DIZ) (Klebsiella pneumoniae [15]): inactive; diameter of the inhibition zone (DIZ) (Penicillium chrysogenum [16]): inactive; diameter of the inhibition zone (DIZ) (Staphylococcus aureus [18]): inactive
4 | O=C(NS(=O)(=O)/C=C/c1ccccc1)c1ccc(Cl)s1 | 27 | 21 | 15 | 17 | 19 | 22 |  | 16 | 21 | 12 | 17 | 17 | 24 | 25 | 22 | 13 | 14 | 19 |  |  | zone of inhibition at 50 µg/disc (Penicillium chrysogenum [7]): 10 mm
5 | O=C(NS(=O)(=O)C1C(c2ccccc2)=NOC1c1ccccc1)c1cccs1 (configuration not stated) | 13 |  |  |  |  | 7 | inactive |  |  |  |  |  | 10 | 9 |  |  |  |  | inactive | inactive | diameter of the inhibition zone (DIZ) (Aspergillus niger [2]): inactive; diameter of the inhibition zone (DIZ) (Aspergillus niger [3]): inactive; diameter of the inhibition zone (DIZ) (Pseudomonas aeruginosa [4]): inactive; diameter of the inhibition zone (DIZ) (Klebsiella pneumoniae [5]): inactive; diameter of the inhibition zone (DIZ) (Staphylococcus aureus [8]): inactive; diameter of the inhibition zone (DIZ) (Staphylococcus aureus [9]): inactive; diameter of the inhibition zone (DIZ) (Aspergillus niger [11]): inactive; diameter of the inhibition zone (DIZ) (Penicillium chrysogenum [12]): inactive; diameter of the inhibition zone (DIZ) (Klebsiella pneumoniae [15]): inactive; diameter of the inhibition zone (DIZ) (Penicillium chrysogenum [16]): inactive; diameter of the inhibition zone (DIZ) (Staphylococcus aureus [18]): inactive
6 | Cc1ccc(/C=C/S(=O)(=O)NC(=O)c2ccc(Cl)s2)cc1 | 22 | 14 | 9 | 12 | 14 | 17 | inactive | 10 | 14 |  | 11 | 12 | 19 | 17 | 15 | 10 | 11 | 13 | inactive |  | 
7 | Cc1ccc(C2C(S(=O)(=O)NC(=O)c3cccs3)C(c3ccccc3)=NN2c2ccccc2)cc1 (configuration not stated) |  | 10 |  |  |  |  | inactive |  |  |  | 8 |  |  |  |  |  |  |  | inactive | inactive | diameter of the inhibition zone (DIZ) (Bacillus subtilis [1]): inactive; diameter of the inhibition zone (DIZ) (Aspergillus niger [3]): inactive; diameter of the inhibition zone (DIZ) (Pseudomonas aeruginosa [4]): inactive; diameter of the inhibition zone (DIZ) (Klebsiella pneumoniae [5]): inactive; diameter of the inhibition zone (DIZ) (Bacillus subtilis [6]): inactive; diameter of the inhibition zone (DIZ) (Staphylococcus aureus [8]): inactive; diameter of the inhibition zone (DIZ) (Staphylococcus aureus [9]): inactive; diameter of the inhibition zone (DIZ) (Penicillium chrysogenum [12]): inactive; diameter of the inhibition zone (DIZ) (Bacillus subtilis [13]): inactive; diameter of the inhibition zone (DIZ) (Klebsiella pneumoniae [14]): inactive; diameter of the inhibition zone (DIZ) (Klebsiella pneumoniae [15]): inactive; diameter of the inhibition zone (DIZ) (Penicillium chrysogenum [16]): inactive; diameter of the inhibition zone (DIZ) (Staphylococcus aureus [18]): inactive
8 | Cc1ccc(-c2onc(-c3ccccc3)c2S(=O)(=O)NC(=O)c2cccs2)cc1 | 23 | 18 | 13 | 12 | 16 | 18 |  | 12 | 16 |  | 15 | 16 | 20 | 21 | 20 | 12 | 9 | 14 | inactive |  | zone of inhibition at 50 µg/disc (Penicillium chrysogenum [7]): 10 mm
9 | O=C(NS(=O)(=O)c1c(-c2ccccc2)nn(-c2ccccc2)c1-c1ccccc1)c1ccc(Cl)s1 | 32 | 25 | 18 | 19 | 23 | 25 |  | 19 | 24 | 14 | 21 | 17 | 28 | 27 | 25 | 15 | 16 | 21 |  |  | zone of inhibition at 50 µg/disc (Penicillium chrysogenum [7]): 13 mm
